Results reported in a melting point compilation (Tetko et al.; mined from patent text by program, amines drawn as free bases though some values may be those of a salt).

Row | SMILES | melting point
1 | CCCCOc1cc(CCS(=O)(=O)NC(=O)OCCOC)n(Cc2ccc(Cl)cc2Cl)n1 | 82 to 86 °C
2 | CN(C)S(=O)(=O)c1ccc(C(F)(F)F)cc1[N+](=O)[O-] | 102 to 104 °C
3 | COc1nsnc(Cl)c1=O | 159 to 161 °C
4 | COc1cccc(C2(CCCCC(=O)O)CCCCC2=O)c1 (configuration not stated) | 89 to 91 °C
5 | O=Cc1cc(C2CC2)nn1Cc1ccc(C(F)(F)F)cc1Cl | 94 to 96 °C
6 | CCOc1ccc(-c2nc(-c3ccc(OS(=O)(=O)C(F)(F)F)c(C(=O)OC)c3)cs2)cc1OCC | 112 to 113 °C
7 | OCc1ncc(-c2ccc(Cl)cc2)o1 | 100 to 104 °C
8 | CC(=O)NC[C@H]1CN(c2ccc(/C=C3/C(=O)N(C)c4ccccc43)cc2)C(=O)O1 | 193 to 195 °C
9 | Nc1cc(Cl)c(Sc2ccc(C(F)(F)F)cc2Cl)cc1F | 80.8 °C
10 | CS(=O)(=O)c1ccc(-c2sc(-c3cccs3)nc2-c2ccc(F)cc2)cc1 | 194 to 195 °C
11 | N#Cc1cc(NC(=O)c2cc3ccccc3o2)ccc1N1CCC(CCO)CC1 | 214 °C
12 | CO[C@]1(c2cccc(Sc3ccc4c(ccc(=O)n4C)c3)c2)CCO[C@@H](C)C1 | 93 to 96 °C
13 | O=C(NC[C@H]1CN(c2ccc(N3CCCC3=O)cc2)C(=O)O1)c1ccc(Cl)s1 | 229 °C
14 | O=[N+]([O-])c1cc(F)c(Cl)cc1Cl | 39 to 42 °C
15 | CCOCc1nc2c(N)nc3cc(N4CCN(CC)C4=O)ccc3c2n1CC(C)(C)O | 210 to 212 °C
16 | CC(C)(C)c1cc(SCCC(=O)NC2C3CC4CC(C3)CC2C4)cc(C(C)(C)C)c1O (configuration not stated) | 156 °C
17 | CS(=O)(=O)OCC1CC(=O)N(c2ccc(-c3ccc(C#N)cc3)cc2)C1 (configuration not stated) | 183 to 186 °C
18 | CC(=O)OC1CCC2(C)C(=CC(=O)C3C4CCC(=O)C4(C)CCC32)C1=O (configuration not stated) | 193 to 195 °C
19 | CCCC[C@H](NC(=O)[C@H](CC(C)C)NC(=O)c1cc(F)c(F)c(F)c1F)C(=O)CSCc1ccco1 | 107 to 108 °C
20 | N#Cc1[nH]c2ccccc2c1-c1ccccc1 | 137 to 142 °C
21 | COC(=O)CCc1ccc(CBr)cc1 | 38 to 42 °C
22 | COc1ccc(O)c(C(=O)c2oc3ccc(Cl)cc3c2N)c1 | 202 to 205 °C
23 | N#Cc1nc(-c2cc(Cl)cc(Cl)c2Cl)c(N)nc1N | 277 to 279 °C
24 | CC(C(=O)O)c1cc(Cl)c(N)cc1Cl (configuration not stated) | 140 to 141 °C
25 | O=C(O)CCCCCc1c(-c2cccnc2)[nH]c2ccc(O)cc12 | 185 to 187 °C
26 | CCOC(=O)[C@H](Cc1ccc(N)cc1)NC(=O)c1ccccc1 | 120 to 122 °C

Row | SMILES | melting point
27 | N#Cc1cc(=O)c(-c2ccccc2)co1 | 177 to 179 °C
28 | Cc1c(Sc2ccc(Cl)cc2)c2c(N3CCN(C(=O)OC(C)(C)C)CC3)cccc2n1CC(=O)O | 173 °C
29 | CC1(C)CON(Cc2c(Cl)cccc2[N+](=O)[O-])C1=O | 86 to 88 °C
30 | CSc1ncnn1C[C@]1(c2ccc(F)cc2F)O[C@@H]1c1ccccc1F (relative stereo) | 65 to 68 °C
31 | CC(C)Oc1cccc(-c2nn(C(C)c3oc4ccccc4c(=O)c3-c3cccc(F)c3)c3ncnc(N)c23)c1 (configuration not stated) | 153 to 157 °C
32 | COc1ccc2cc3c(c(-c4ccc(OC(F)(F)F)cc4)c2c1)CNC3=O | 277 to 280 °C
33 | C=CCOc1nc2cc(OC)c(OC)cc2c2ncnn12 | 189 to 191 °C
34 | O=Cc1cc(Cl)c(Cl)c(Cl)n1 | 84 to 88 °C
35 | Cn1c(OCC(CO)CO)nc2c(NC(=O)c3ccccc3)ncnc21 | 151 to 153 °C
36 | OC(CNC1=NCCN1)c1ccccc1 (configuration not stated) | 147 to 149 °C
37 | COc1cc(O)c2c(=O)c(OC)c(-c3ccc(O)cc3)oc2c1 | 252 to 253 °C
38 | CCCCOCCOc1ccc(-c2ccc(N3CCCCCC3)c(C=C(C)C(=O)O)c2)cc1 | 124 to 126 °C
39 | O=C(c1ccc(F)cc1)N1CCN(S(=O)(=O)c2ccc(Nc3ccnc4cc(C(F)(F)F)ccc34)cc2)CC1 | 172 to 174 °C
40 | CCCCc1nc(C)n2[nH]c(=O)nc2c1Cc1ccc(-c2ccccc2C(=O)O)cc1 | 210 to 211 °C
41 | CCC12CCC3C4CCC(=O)C=C4CCC3C1CCC2OC(=O)CC(C)C (configuration not stated) | 82 to 89 °C
42 | CCOC(=O)c1ccc(Cl)nc1OCC | 33 to 35 °C
43 | N#Cc1ccc2oc(CCc3ccc(C(=O)O)cc3)cc2c1 | 234 to 235 °C
44 | CS(=O)(=O)c1ccc(-c2cnn(CC(F)(F)F)c(=O)c2-c2ccc(S(C)(=O)=O)cc2)cc1 | 212 to 213 °C
45 | COc1ccc(S(=O)(=O)C(CC=C(C)C)(Cc2cccnc2)C(=O)O)cc1 (configuration not stated) | 117 to 119 °C
46 | CN1CC(CCCl)Oc2ncc(Cl)cc2C1=S (configuration not stated) | 125 to 127 °C
47 | COc1cc2c3c(c1)-c1c(O)cccc1CC3N(C)CC2 (configuration not stated) | 214 to 215 °C
48 | CCCCCc1cccc2c1NC(=O)C2=O | 119 to 121 °C
49 | CCOC(=O)Cc1ccc(-c2ccc3oc(C(=O)OCC)c(C)c3c2)cc1 | 110 to 112 °C
50 | O=C1c2ccccc2C(=O)N1CCN(OCc1ccccc1)C(=S)Nc1c(F)cccc1F | 141 to 143 °C
51 | O=C(c1ccc(Cl)cc1)c1cccc2c1CCCC2C(=O)O (configuration not stated) | 152 to 154 °C
52 | CC(CCC(F)(F)C(C)(C)O)C1CCC2C3CCC4=CC(=O)C=CC4(C)C3CCC12C (configuration not stated) | 176 to 177 °C

Row | SMILES | melting point
53 | COc1cc(OC)cc(N2CCN(C(=S)Nc3nc4ccccc4nc3OC)CC2)c1 | 141 to 143 °C
54 | COc1ccc(-c2cc3ccccc3[nH]2)cc1NC(=S)Nc1cc(Cl)cc(Cl)c1 | 199 to 201 °C
55 | CCCn1nnn(-c2cc(OC3CCCO3)c(Cl)cc2Cl)c1=O (configuration not stated) | 89 to 90 °C
56 | CCCC(O)c1c(C)c(NC(=O)CC(C)(C)C)c(C)c2c1OCC2c1ccc(C(C)C)cc1 (configuration not stated) | 150 to 151 °C
57 | CNC(=O)c1c(Nc2ccccc2[N+](=O)[O-])c(C)nn1C | 223 to 225 °C
58 | CC(C)(C)[C@@H]1O[C@@H](O)[C@@H]2[C@H]1C2(C)C | 126 °C
59 | O=C(Nc1ccc(Cl)c(C(F)(F)F)c1)Nc1ccc(OCc2ccccc2)cc1O | 182 to 184 °C
60 | N#CN=C(Nc1cccnc1)Oc1ccccc1 | 154 to 155 °C
61 | CN(C)C(=S)SC(C[N+](=O)[O-])c1ccccc1Cl (configuration not stated) | 102 to 104 °C
62 | O=C(O)c1cccc2c1sc1ccccc12 | 253 to 255 °C
63 | COC(c1ccc(Cl)c2nc3n(c12)CCCN3c1ccc(Cl)cc1C(F)(F)F)C1CC1 (configuration not stated) | 208 to 209 °C
64 | O=C(O)CCOCCCc1cccc(-c2nc(=O)c3ccccc3s2)n1 | 141 to 142 °C
65 | CNc1nc(-c2ccc(OC)c(OC)c2)cs1 | 120 to 123 °C
66 | CC(=O)N(CC(C)Cl)c1c(C)cccc1C (configuration not stated) | 41 to 42 °C
67 | CCN(CC)C(=O)n1ccc(Sc2cccc(Cl)c2C)n1 | 87 to 88 °C
68 | CCSC(c1ccc(Cl)cc1)C(C(=O)C(C)(C)C)n1cncn1 (configuration not stated) | 154 °C
69 | CN1C(=O)c2cccc(S(=O)(=O)NC(C)(C)C)c2C1=O | 160 to 163 °C
70 | COC(=O)c1ccc(CN(C(CO)CO)S(=O)(=O)c2ccc(Cl)s2)cc1 | 134 to 135 °C
71 | COc1ccc(C(=O)Nc2ccccc2C(C)(O)c2ccccn2)cc1 (configuration not stated) | 127 to 128 °C
72 | Cc1ccc(N2C(=O)C(O)=C(C(=O)c3cccc(Cl)c3)C2c2ccc(C(C)C)cc2)nn1 (configuration not stated) | 271 °C
73 | CCc1nc(-c2ccc(OCCCN3CCOCC3)cc2)no1 | 52 to 53 °C
74 | COc1ccc(-c2cc(C(F)F)nn2-c2ccc(S(N)(=O)=O)cc2)cc1I | 135 to 137 °C
75 | O=C(Nc1ccc(Cl)c(C(F)(F)F)c1)c1ccccc1NCc1ccc(=O)[nH]c1 | 231 °C
76 | Cc1nc(N2CCCCC2=O)sc1C(=O)NCc1ccccc1 | 175 to 176 °C
77 | CC(=O)Nc1ccc2sc3ccc(Br)cc3c(=O)c2c1 | 219 to 222 °C
78 | CC(C)(C)OC(=O)N1C[C@@H]2Cc3cc4ccccc4n3C[C@@H]2C1 (relative stereo) | 143 to 144 °C

Row | SMILES | melting point
79 | Cc1c(Br)c2c(c(C)c1NC(=O)OC(C)(C)C)CCO2 | 176 to 177 °C
80 | CN1C2CCCC1CC(NC(=O)c1cccc3nc(-c4ccc(Cl)cc4)oc13)C2 (configuration not stated) | 193 to 196 °C
81 | CN1CCN(Cc2ccccc2Cl)C(C2=NCCO2)C1 (configuration not stated) | 96.8 °C
82 | CCOC(=O)c1c(-c2ccccc2Cl)c2cc(C(C)C)ccc2n(C)c1=O | 140 to 142 °C
83 | COc1cc(N2CCC(N3CCNCC3)CC2)ccc1Nc1ncc2ccc(-c3ccccc3OC)n2n1 | 65 to 67 °C
84 | CC1(C)N=C(c2ccccc2F)c2cc(N)ccc2NC1=O | 203 °C
85 | COC(=O)c1ccc(C=O)s1 | 79 °C
86 | CC/C(=C(\c1ccc(I)cc1)c1ccc(OCCCCCS(=O)CCCC(F)(F)C(F)(F)F)cc1)c1ccccc1 (configuration not stated) | 85 to 87 °C
87 | CCC(C)(C)NC(=S)Nc1cc(F)cc(Br)c1 | 123 to 124 °C
88 | CNc1nc(C)c(-c2cn3ccccc3n2)s1 | 228 to 229 °C
89 | O=C(O)CON=Cc1ccc(Cl)cc1 | 121 to 123 °C
90 | COC1=Cc2ccc(Cl)cc2C(O)(C2CCN(C)CC2)c2ccsc21 (configuration not stated) | 200 to 202 °C
91 | CC1Cc2c(n(-c3ccc(Cl)cc3)c3ncccc3c2=O)O1 (configuration not stated) | 227 to 228 °C
92 | C=C(C)Cc1c(O)c2c(c3c1CC(C)(C)N=C3c1ccccc1)CC(C)(C)O2 | 196 to 198 °C
93 | Cc1ccc(-c2ncn(-c3ccc(OC(F)(F)C(F)(F)F)cc3)n2)cc1 | 130 to 132 °C
94 | CC(C)c1cc2c(cc1Oc1ccc(C(=O)O)cc1)C(C)(C)CCC2(C)C | 205 to 206 °C
95 | COc1cccc(CNC(=O)c2nc3ccc(-c4ccccc4)cc3c(=O)[nH]2)c1 | 202 to 204 °C
96 | CC(=O)N1CCC(Oc2ccccc2N2CCCCC2)CC1 | 69 to 70 °C
97 | O=C1CSCN1CCCCN1CCN(c2ccc(F)cc2)CC1 | 83 to 85 °C
98 | COC=C1CCC(C#N)(c2ccc(OC)c3c2OCCO3)CC1 (configuration not stated) | 112 to 113 °C
99 | CCN(Cc1cc(Br)ccc1OCC1CC1)c1ccc(C(=O)O)cn1 | 175 to 177 °C
100 | COc1ccc(C=C2CS(=O)(=O)CC(=Cc3ccc(OC)cc3)C2(O)NC2=NCCS2)cc1 (configuration not stated) | 194 to 196 °C
101 | COC1(c2csc(S(=O)(=O)c3ccc(/C(C)=N/O)cc3)c2)CCOCC1 | 141 to 142 °C
102 | Cc1ccc(C(=O)Nc2ccc3ccc(Cl)nc3n2)cc1 | 228 °C
